Among the test systems are CAKI-1 renal; HOP-62 NSCLC; LOX IMVI melanoma; M14 melanoma; MOLT-4 leukemia; SF-268 CNS; SR leukemia; TK-10 renal; UACC-62 melanoma; RPMI-8226 leukemia.
Common to all, as to assay: NCI anticancer screen, dose series, 48 h

The values below come from PubChem BioAssay (NCI).

The structures appear in SMILES notation. Where “and” joins values, the source holds several entries; their conditions need not be identical. Equal values may be shown once.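 Values below derive from 48-hour exposures of cells grown in 96-well plates, with endpoints linearly interpolated between the two concentrations bracketing the appropriate inhibition level. Abbreviation: GI50, concentration required for 50% inhibition of growth. TGI marks complete inhibition of growth.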 Bounds are passed on as bounds.

Regarding `COc1ccc(Cn2c(Br)c3c(c2Br)-c2nc(N)sc2CC3)cc1`, the GI50 in the assay with CAKI-1 renal was 2900 nM; in the assay with HOP-62 NSCLC, 6.55 µM; in the assay on LOX IMVI melanoma, 3.35 µM; in the assay on M14 melanoma it was 3.96 µM; in the assay with MOLT-4 leukemia, 0.962 µM; in the assay on SF-268 CNS it was 6.15 µM. For the same compound, the results for the GI50 in the assay on SR leukemia, in the assay with TK-10 renal and in the assay with UACC-62 melanoma were 0.84 µM, 3.69 µM and 6.97 µM, respectively. Also, the TGI in the assay on CAKI-1 renal amounted to 10.4 µM; in the assay with HOP-62 NSCLC it was 20.5 µM; in the assay on LOX IMVI melanoma, 16.3 µM; in the assay with M14 melanoma, 17.6 µM; in the assay on MOLT-4 leukemia, 21.7 µM; in the assay with SF-268 CNS, 46.6 µM. In addition, the TGI in the assay with SR leukemia is above 100 µM; in the assay on TK-10 renal, 12.7 µM; with UACC-62 melanoma it was 26 µM.

Consider `COc1c(CC(C)=O)ccc2c1C(=O)c1ccc(C=O)c(OC(C)=O)c1C2=O`, for which the TGI in the assay with CAKI-1 renal was determined as 47 µM; with LOX IMVI melanoma, 40.3 µM; in the assay with M14 melanoma, 25.6 µM; with MOLT-4 leukemia, 47.6 µM; in the assay with RPMI-8226 leukemia, 63.3 µM; in the assay on TK-10 renal, 75.1 µM. For the same compound, the TGI with UACC-62 melanoma is 18.5 µM.

As to `CCC(C)SC1SCC2C(=O)N(C)C3(CC3C)C(=O)OCC(NC(=O)c3nc4ccccc4cc3O)C(=O)NC(C)C(=O)N(C)C1C(=O)N(C)C1(CC1C)C(=O)OCC(NC(=O)c1nc3ccccc3cc1O)C(=O)NC(C)C(=O)N2C` (configuration not stated), the GI50 in the assay on CAKI-1 renal was 0.087 nM; in the assay with TK-10 renal, 0.000654 µM. Moreover, the TGI with HOP-62 NSCLC is 0.00155 µM; with LOX IMVI melanoma, 0.000122 µM; in the assay on M14 melanoma it was 0.000846 µM and < 0.025 µM; with MOLT-4 leukemia it was 0.0687 µM; in the assay with RPMI-8226 leukemia, 0.00233 µM; with SF-268 CNS it was 0.00516 µM. Also, the TGI in the assay on UACC-62 melanoma was 5.01e-05 µM.

As to `COC1=CC(=O)C(C2(OC(C)C)OC(=O)C(Cl)=C2Cl)=CC1=O` (configuration not stated), the TGI with CAKI-1 renal, in the assay with HOP-62 NSCLC, in the assay with LOX IMVI melanoma, in the assay on M14 melanoma, in the assay with RPMI-8226 leukemia and in the assay on SF-268 CNS was above 100 µM in each case. Also, the TGI in the assay with TK-10 renal and in the assay on UACC-62 melanoma was above 100 µM in each case.

On to `CN(C)C(=S)/N=c1\ssc(=S)n1C1CCCCC1`, for which the TGI with CAKI-1 renal was 90.6 µM; in the assay with HOP-62 NSCLC, above 100 µM; in the assay with M14 melanoma, 36.3 µM; in the assay with MOLT-4 leukemia, 52.3 µM; with SF-268 CNS, above 100 µM; in the assay with SR leukemia it was 63.1 µM. The TGI in the assay on TK-10 renal was above 100 µM; in the assay on UACC-62 melanoma it was 34.2 µM.

Regarding `C#Cc1cccc(Nc2nc3cc([N+](=O)[O-])ccc3nc2Nc2ccc(O)cc2)c1`, the GI50 with CAKI-1 renal was 2190 nM; with HOP-62 NSCLC, 1.67 µM; with LOX IMVI melanoma, 1.38 µM; with M14 melanoma, 1.43 µM; in the assay on MOLT-4 leukemia, 1.2 µM; in the assay with RPMI-8226 leukemia, 2.24 µM. For the same compound, the GI50 was 1.56 µM in the assay on SF-268 CNS and 1.62 µM in the assay with UACC-62 melanoma. The TGI in the assay on CAKI-1 renal was determined as 5.04 µM; in the assay with HOP-62 NSCLC, 3.35 µM; with LOX IMVI melanoma, 2.69 µM; with M14 melanoma, 2.99 µM; in the assay on MOLT-4 leukemia, 4.17 µM; with RPMI-8226 leukemia, 8 µM. Further, the TGI with SF-268 CNS worked out at 3.45 µM; with UACC-62 melanoma it was 2.99 µM.

As for `CN(C)CC1CCCC/C1=N/O` (configuration not stated), the TGI with CAKI-1 renal, in the assay on HOP-62 NSCLC, in the assay with LOX IMVI melanoma, with M14 melanoma, with MOLT-4 leukemia and in the assay with RPMI-8226 leukemia was above 100 µM each time. The TGI with SF-268 CNS, in the assay on TK-10 renal and in the assay with UACC-62 melanoma was above 100 µM in each case.

As to `O=C(Nc1nc(=S)[nH][nH]1)C(=O)C(C(=O)c1ccc2ccccc2c1)C1OC(=O)c2ccccc21` (configuration not stated), the TGI was above 100 µM in the assay on CAKI-1 renal; 45.4 µM with HOP-62 NSCLC; 39 µM with LOX IMVI melanoma; 40.9 µM with M14 melanoma; 21.1 µM in the assay on MOLT-4 leukemia; 40.2 µM in the assay on RPMI-8226 leukemia. Moreover, the TGI in the assay on SF-268 CNS was above 100 µM; in the assay with TK-10 renal it was 80.3 µM; in the assay on UACC-62 melanoma, 30.2 µM.

Consider `O=c1c2cccnc2ncn1CCN1CCCCC1`, for which the TGI in the assay with CAKI-1 renal, in the assay on HOP-62 NSCLC, in the assay with LOX IMVI melanoma, in the assay on M14 melanoma, with MOLT-4 leukemia and in the assay with SF-268 CNS was above 100 µM in each case. The TGI with SR leukemia, in the assay on TK-10 renal and in the assay with UACC-62 melanoma was above 100 µM each time.

As to `COc1ccc(C(c2cc(OC)c(OC)c(OC)c2)n2cncn2)cc1O` (configuration not stated), the GI50 was 567 nM in the assay with CAKI-1 renal; 0.514 µM in the assay with HOP-62 NSCLC; 0.523 µM in the assay with LOX IMVI melanoma; 0.374 µM in the assay on M14 melanoma; 0.51 µM with MOLT-4 leukemia; 0.452 µM in the assay on RPMI-8226 leukemia. The GI50 in the assay on SF-268 CNS is 0.649 µM; with TK-10 renal, above 100 µM; in the assay with UACC-62 melanoma it was 0.55 µM. The TGI in the assay with CAKI-1 renal, in the assay on HOP-62 NSCLC, in the assay with LOX IMVI melanoma, in the assay on M14 melanoma, in the assay with MOLT-4 leukemia and in the assay on RPMI-8226 leukemia was above 100 µM throughout. Further, the TGI with SF-268 CNS, with TK-10 renal and in the assay with UACC-62 melanoma was above 100 µM each time.

As to `NCCNCCNCCN`, the GI50 was above 100000 nM in the assay on CAKI-1 renal; above 100 µM in the assay on HOP-62 NSCLC; above 100 µM in the assay on LOX IMVI melanoma; above 100 µM with M14 melanoma; above 100 µM in the assay on MOLT-4 leukemia; above 100 µM in the assay with SF-268 CNS. Further, the GI50 in the assay with SR leukemia, in the assay with TK-10 renal and in the assay with UACC-62 melanoma was above 100 µM in each case. In addition, the TGI in the assay on CAKI-1 renal, with HOP-62 NSCLC, in the assay with LOX IMVI melanoma, with M14 melanoma, in the assay on MOLT-4 leukemia and in the assay on SF-268 CNS was above 100 µM throughout. Besides, the TGI in the assay with SR leukemia, in the assay on TK-10 renal and with UACC-62 melanoma was above 100 µM in each case.

Regarding `CCCOc1nc(N)c2cnn(C3CCCCO3)c2n1` (configuration not stated), the TGI in the assay on CAKI-1 renal, in the assay with HOP-62 NSCLC, in the assay with M14 melanoma, in the assay on MOLT-4 leukemia, in the assay on RPMI-8226 leukemia and with SF-268 CNS was above 100 µM in each case. In addition, the TGI in the assay with SR leukemia and in the assay with UACC-62 melanoma was above 100 µM throughout.
